Entries after “also recorded” stand apart in the source; their conditions may differ.
Tests used:
[1] = tested on: PLX4032-resistant SKMEL-239 clones; experiment: Sensitivity of PLX4032-resistant SKMEL-239 clones to MEK inhibitor (5-day proliferation, pMEK/pERK dose-response); assay type: cell-based, human; settings: all five resistant clones; slightly higher doses than in the parental cell line
Experimental: (§1) For proliferation assays, cells were plated in 6-well plates, and 24 hours later were treated with varying concentrations of inhibitors, or vehicle control, as indicated. IC50 values were calculated using Graph Pad Prism v.5. For cell cycle and apoptosis studies, cells were seeded in 6-well dishes the day prior to drug treatment. For analysis, both adherent and floating cells were harvested and stained with ethidium bromide as described previously 21.

p61 BRAF(V600E/R509H) = p61 BRAF(V600E/R509H) (Homo sapiens, UniProt P15056, DEL169-380/R509H/V600E); experiment: ERK signaling in 293H cells expressing p61 BRAF(V600E/R509H); assay type: cell-based; settings: 2 μM for 1 hour
Experimental: (§2) The BRAF inhibitor, PLX403219 (vemurafenib) was obtained from Plexxikon Inc. PD0325901 was synthesized in the MSKCC Organic Synthesis Core Facility. Flag-tagged BRAF constructs have been described previously4. All other plasmids were created using standard cloning methods, with pcDNA3.1 (Invitrogen) as a vector. Mutations were introduced using the site-directed Mutagenesis Kit (Stratagene). For transfection studies, cells were seeded on 35 mm or 100 mm plates and transfected the following day using Lipofectamine 2000 (Invitrogen). Cells were collected 24 hours later for subsequent analysis. cDNA Preparation and PCR.

p61 BRAF(V600E) [2] = target: T1, p61 BRAF(V600E) (Homo sapiens, UniProt P15056, DEL169-380/V600E); experiment: ERK signaling in SKMEL-239 or HT-29 cells ectopically expressing p61 BRAF(V600E); assay type: cell-based; settings: 1 hour
Experimental: as §2

BRAF(V600E/R509H) = BRAF(V600E/R509H) (Homo sapiens, UniProt P15056, R509H/V600E); experiment: ERK signaling in 293H cells expressing the dimerization mutant BRAF(V600E/R509H); assay type: cell-based; settings: 2 μM for 1 hour
Experimental: as §2

[3] = tested on: ERK signaling (pMEK, pERK); experiment: ERK signaling (pMEK/pERK Western blot) in SKMEL-239 parental cells and PLX4032-resistant clones
Experimental: Western blotting and receptor tyrosine kinase (RTK) arrays. Western blot analysis was performed as previously described13. The following antibodies were used: p217/p221-MEK (pMEK), p202/p204-ERK (pERK), MEK, ERK, (Cell Signaling), V5 tag (Invitrogen), BRAF, cyclin Flag tag, β-actin (Sigma).

[4] = tested on: HT-29 cells (colorectal; BRAF(V600E)) expressing HER2 (V654E); experiment: MEK/ERK in HT-29 cells transfected with activated HER2 (V654E); assay type: cell-based; settings: various concentrations, 1 h
[5] = tested on: wild-type (+/+), BRAF−/− or CRAF−/− MEFs; experiment: MEK/ERK activation in wild-type, BRAF knockout or CRAF knockout MEFs; assay type: cell-based; settings: indicated concentrations, 1 h
SKMEL-239 cells = experiment: Cell cycle and cell death (sub-G1 peak by FACS) in SKMEL-239 parental cells and resistant clones; assay type: cell-based, human
Experimental: as §1

[6] = tested on: HT-29 cells (colorectal; BRAF(V600E)) expressing NRAS(G12V); experiment: MEK/ERK in HT-29 cells transfected with HA-tagged NRAS(G12V); assay type: cell-based; settings: various concentrations, 1 h
p61 BRAF(V600E) [7] = target: T1, p61 BRAF(V600E); experiment: ERK signaling in 293H cells ectopically expressing p61 BRAF(V600E); assay type: cell-based; settings: 293H cells expressing p61 BRAF(V600E), 2 μM for 1 hour
Experimental: as §2

p61 BRAF(V600E) [8] = target: T1, p61 BRAF(V600E); experiment: In vitro kinase assay of immunoprecipitated V5-tagged p61 BRAF(V600E), inactive MEK(K97R) as substrate; assay type: biochemical; settings: 200 μM ATP, 30° C., 20 min
Experimental: V5-tagged full length BRAF(V600E) or V5-tagged p61 BRAF(V600E) were ectopically expressed in 293H cells. 24 hours later, cells were harvested, lysed and BRAF was immunoprecipitated using a V5 antibody. […] Kinase activity was estimated by western blot for pMEK.
Immunoprecipitations and kinase assays. Cells were lysed in lysis buffer (50 mM Tris, pH7.5, 1% NP40, 150 mM NaCl, 10% glycerol, 1 mM EDTA) supplemented with protease and phosphatase inhibitor cocktail tablets (Roche). Immunoprecipitations were performed at 4° C. for 4 h, followed by three washes with lysis buffer and, in cases of subsequent kinase assay, one final wash with kinase buffer (25 mM Tris, pH 7.5, 10 mM MgCl2). […] The kinase reaction was terminated by adding sample buffer and boiling. Kinase activity was determined by immunoblotting for pMEK.

[9] = parental SKMEL-239, 2 μM PLX4032

T1 sequence (P15056 with tags, fused parts or gaps DEL169-380/V600E): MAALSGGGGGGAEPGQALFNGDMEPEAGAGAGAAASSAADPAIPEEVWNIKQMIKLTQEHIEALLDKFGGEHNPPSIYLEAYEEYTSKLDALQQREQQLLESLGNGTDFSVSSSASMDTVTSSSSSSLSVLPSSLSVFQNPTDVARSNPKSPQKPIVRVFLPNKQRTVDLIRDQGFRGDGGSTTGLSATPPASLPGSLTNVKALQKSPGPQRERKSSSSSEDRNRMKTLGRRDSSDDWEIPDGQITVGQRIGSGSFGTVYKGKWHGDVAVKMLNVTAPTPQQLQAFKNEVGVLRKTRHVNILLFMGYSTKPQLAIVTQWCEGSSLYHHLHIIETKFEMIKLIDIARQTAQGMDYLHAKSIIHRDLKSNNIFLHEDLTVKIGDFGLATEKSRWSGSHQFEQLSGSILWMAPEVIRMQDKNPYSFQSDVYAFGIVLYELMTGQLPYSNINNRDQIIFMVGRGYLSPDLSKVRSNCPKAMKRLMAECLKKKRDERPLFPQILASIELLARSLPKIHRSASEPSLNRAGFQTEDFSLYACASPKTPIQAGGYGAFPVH
p61 BRAF(V600E/R509H), sequence (P15056 with tags, fused parts or gaps DEL169-380/R509H/V600E): as the sequence (P15056 with tags, fused parts or gaps DEL169-380/V600E) above, with R297H counted along it
BRAF(V600E/R509H), sequence (P15056 whole entry R509H/V600E): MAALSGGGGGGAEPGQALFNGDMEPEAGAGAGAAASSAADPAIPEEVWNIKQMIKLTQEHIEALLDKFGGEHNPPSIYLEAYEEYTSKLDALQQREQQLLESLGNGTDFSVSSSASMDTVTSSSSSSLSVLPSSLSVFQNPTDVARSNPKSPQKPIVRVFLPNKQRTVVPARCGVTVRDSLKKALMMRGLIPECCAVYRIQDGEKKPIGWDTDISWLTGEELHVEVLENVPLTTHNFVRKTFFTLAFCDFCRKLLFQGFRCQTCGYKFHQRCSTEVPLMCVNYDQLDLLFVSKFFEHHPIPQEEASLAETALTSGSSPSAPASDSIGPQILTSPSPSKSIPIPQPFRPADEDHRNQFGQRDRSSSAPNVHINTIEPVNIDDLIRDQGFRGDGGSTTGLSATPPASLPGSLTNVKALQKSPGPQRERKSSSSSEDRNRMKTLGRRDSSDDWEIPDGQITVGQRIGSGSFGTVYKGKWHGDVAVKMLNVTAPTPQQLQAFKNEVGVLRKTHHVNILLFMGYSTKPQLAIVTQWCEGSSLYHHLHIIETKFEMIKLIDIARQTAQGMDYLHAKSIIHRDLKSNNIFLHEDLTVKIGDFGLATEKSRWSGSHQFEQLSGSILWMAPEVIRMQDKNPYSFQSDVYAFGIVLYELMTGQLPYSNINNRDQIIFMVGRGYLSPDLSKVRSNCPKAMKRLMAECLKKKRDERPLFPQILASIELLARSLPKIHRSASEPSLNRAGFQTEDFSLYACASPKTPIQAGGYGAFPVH

inhibition of ERK signaling (p61 BRAF(V600E/R509H))	sensitivity of ERK signaling (BRAF(V600E/R509H))	sensitivity of ERK signaling (pMEK, pERK) (p61 BRAF(V600E) [7])	inhibition of kinase activity in vitro (pMEK Western blot) (p61 BRAF(V600E) [8])	SMILES	sensitivity to the MEK inhibitor [1]	inhibition of ERK signaling (p61 BRAF(V600E) [2]; HT-29 cells expressing p61 BRAF(V600E))	inhibition of ERK signaling (p61 BRAF(V600E) [2]; parental SKMEL-239 cells expressing p61 BRAF(V600E))	sensitivity of ERK signaling to the drug ([3]; PLX4032-resistant SKMEL-239 cells)	IC50 for pMEK inhibition relative to the parental cell line ([3]; SKMEL-239 C3 clone, 1 hour)	pMEK IC50 relative to the parental clone ([3]; SKMEL-239 C5 clone, 1 hour) [fold]	inhibition of ERK signaling [3, 9]	sensitivity of MEK/ERK to RAF inhibitor [4]	MEK/ERK activation [5]	cell death (sub-G1 peak by FACS) (SKMEL-239 cells; five PLX4032-resistant SKMEL-239 clones)	cell cycle effect (SKMEL-239 cells; [9])	cell death (sub-G1 peak by FACS) (SKMEL-239 cells; parental SKMEL-239 cells)	sensitivity of MEK/ERK to RAF inhibitor [6]
				O=C(NOC[C@H](O)CO)c1ccc(F)c(F)c1Nc1ccc(I)cc1F [PD032590113]	retained sensitivity												
inhibited	remained sensitive	resistant; also recorded: insensitive	can be inhibited in vitro	CCCS(=O)(=O)Nc1ccc(F)c(C(=O)c2c[nH]c3ncc(-c4ccc(Cl)cc4)cc23)c1F [PLX4032]		failure of PLX4032 to effectively inhibit ERK signaling	failure of PLX4032 to effectively inhibit ERK signaling	decreased sensitivity	more than 100 fold	4.5	effectively inhibits ERK signaling	insensitive	MEK/ERK activation does not require BRAF	not in the five resistant clones	accumulation of cells in G1	significant induction of cell death; also recorded: induced cell death	insensitive

Reference: patent US9481910B2, “Methods and compositions for the detection of drug resistant BRAF isoforms” (MEMORIAL SLOAN-KETTERING CANCER CENTER, priority 2011, dated 2016)
